Measured values reported in patent US9751846B2, “Method for producing 1,4-benzoxazine compound” (MITSUBISHI TANABE PHARMA CORPORATION, priority 2012, dated 2017).
Entries after “also recorded” stand apart in the source; their conditions may differ.

Legend:
mutagenicity (AMES test) = assay type: cell-based
[1] = stability of the crystal form (transition by heating, thermostability); assay type: physicochemical; details: for stability of the crystal: general statement
[2] = stability of the crystal in a formulation; assay type: physicochemical
[3] = hygroscopicity of the crystal form; assay type: physicochemical

Row | SMILES | stability of the crystal [1] | hygroscopicity [3] | other results
1 | CC1(C)Oc2cc(N(S(C)(=O)=O)S(C)(=O)=O)ccc2N(c2ccc(F)cc2)C1=O [compound [c], N-[4-(4-fluorophenyl)-2,2-dimethyl-3-oxo-3,4-dihydro-2H-1,4-benzoxazin-7-yl]-N-(methylsulfonyl)methanesulfonamide] | – | – | mutagenicity (mutagenicity (AMES test); test not named at this place, synthetic intermediate of the new route): lower mutagenicity
2 | CC1(C)Oc2cc(NS(C)(=O)=O)ccc2N(c2ccc(F)cc2)C1=O [Form C crystal, N-[4-(4-fluorophenyl)-2,2-dimethyl-3-oxo-3,4-dihydro-2H-1,4-benzoxazin-7-yl]methanesulfonamide] | highly stable | – | –
3 | CC1(C)Oc2cc(N)ccc2N(c2ccc(F)cc2)C1=O [intermediate (2), 7-amino-4-(4-fluorophenyl)-2,2-dimethyl-2H-1,4-benzoxazin-3(4H)-one] | – | – | mutagenicity by the AMES test (mutagenicity (AMES test); synthetic intermediate of the Patent Literature 1 route): strong mutagenicity
4 | CC1(C)Oc2cc(NS(C)(=O)=O)ccc2N(c2ccc(F)cc2)C1=O [Form A crystal, N-[4-(4-fluorophenyl)-2,2-dimethyl-3-oxo-3,4-dihydro-2H-1,4-benzoxazin-7-yl]methanesulfonamide] | highly stable | low hygroscopicity; also recorded: non-hygroscopic | transition to amorphous state or other crystal form by heating ([1]; heating): hardly makes a transition to other crystal form by heating; also recorded: does not transform to an amorphous state or other crystal form; stability in a formulation [2]: high stability in a formulation; also recorded: highly stable in a formulation
5 | CC1(C)Oc2cc(NS(C)(=O)=O)ccc2N(c2ccc(F)cc2)C1=O [Form B crystal, N-[4-(4-fluorophenyl)-2,2-dimethyl-3-oxo-3,4-dihydro-2H-1,4-benzoxazin-7-yl]methanesulfonamide] | highly stable | low hygroscopicity | thermostability ([1]; as compared to the Form D crystal of Patent Literature 1): higher thermostability
